Experimental data as given in patent US10610539B2, “Cardiac glycoside analogs and their use in methods for inhibition of viral infection” (priority 2013, dated 2020).

Columns and labels:
[1] = system: Human Foreskin Fibroblasts (HFFs); format: cell-based; conditions: for cell cycle progression after mimosine arrest: HFFs treated with mimosine 48 hours, washed, treated one day
Procedure: Flow Cytometry: 1×10^5 HFFs from infected-treated or untreated conditions were washed with cold PBS. Cells were suspended in 70% pre-cooled alcohol. Cells were permeabilized in −20° C. for at least 2 hours followed by centrifugation at 5000 rpm for 5 minutes. The supernatants were discarded and cells were washed with cold PBS three times. Cells were re-suspended in 500 ul PBS, propidium iodide was added to a final concentration of 20-50 μg/ml and cells were incubated at room temperature for at least 10 minutes before applying them on flow machine.
The differences between the MTT and trypan blue assay complicated the calculation of antiviral selectivity. […] After 3 day serum starvation cells were released from serum starvation, infected with Towne HCMV and treated with digitoxin or the cardiac glycoside ouabain for 24 hours. HFFs were stained with propidium iodide and subjected to cell cycle analysis by flow cytometry.

Towne HCMV = conditions: previously reported by the inventors; cited from earlier work
[2] = system: Herpes Simplex Virus 1 (HSV1); conditions: reported; cited from earlier work
breast cancer patients = conditions: women with breast cancer taking digoxin vs. 34% not taking digitalis; cited from earlier work

Row | Structure (SMILES) | cell cycle progression after mimosine arrest [1] | inhibition of Towne HCMV replication (Towne HCMV) | inhibition of Herpes Simplex Virus 1 (HSV1) [2] | death rate (breast cancer patients) [%] | cell cycle progression ([1]; HFFs released from 3 day serum starvation, infected with Towne HCMV, treated 24 hours)
1 | Nc1nc(O)c2ncn(COC(CO)CO)c2n1 [GCV, ganciclovir] | allowed the cells to normally progress in the cell cycle |  |  |  | 
2 | C[C@H]1O[C@@H](O[C@H]2[C@@H](O)C[C@H](O[C@H]3[C@@H](O)C[C@H](O[C@H]4CC[C@@]5(C)[C@H](CC[C@@H]6[C@@H]5C[C@@H](O)[C@]5(C)[C@@H](C7=CC(=O)OC7)CC[C@]65O)C4)O[C@@H]3C)O[C@@H]2C)C[C@H](O)[C@@H]1O [digoxin] |  | potent inhibitors of Towne HCMV replication | inhibit Herpes Simplex Virus 1 (HSV1) in nanomolar concentrations | 6 | 
3 | C[C@@H]1O[C@@H](O[C@H]2C[C@@H](O)[C@]3(CO)[C@H]4[C@H](O)C[C@]5(C)[C@@H](C6=CC(=O)OC6)CC[C@]5(O)[C@@H]4CC[C@]3(O)C2)[C@H](O)[C@H](O)[C@H]1O [ouabain] | could not relieve HFFs from cell cycle arrest induced by mimosine | potent inhibitors of Towne HCMV replication | inhibit Herpes Simplex Virus 1 (HSV1) in nanomolar concentrations |  | arrested HFFs in G1
